# Source: patent US7538099B1, “Antiprogestin method and kit for reducing side effects associated with low dosage HRT, oral contraception and regulating menses” (Eastern Virginia Medical School, priority 1992, dated 2009)
# Read-outs that look alike come from different tables or passages of the source.
# Key:
# [1] = system: ovariectomized cynomolgus monkeys; assay: Example III: vaginal bleeding in ovariectomized monkeys on estradiol and low-dose progesterone implants, onapristone 40 mg/kg im; assay type: in vivo; conditions: for incidence of breakthrough bleeding: 40 mg/kg im, estradiol and low-dose progesterone replacement
# Description: (§1) Twenty ovariectomized cynomolgus monkeys were implanted subcutaneously with an estradiol-containing silastic capsule (3 cm length).
# The study was undertaken in two phases.
# (§2) All monkeys have reached at least day 272. The estradiol implant will remain in place to day 301. […] A smaller progesterone implant (0.5 cm) will be in place from day 210 to 294. This implant is intended to produce a serum progesterone concentration of approximately 0.7 ng/ml. The two experimental groups (M=10/group) were as follows: • Group 1 Onapristone vehicle (saline) on days 180, 197, 240, and 270 • Group 2 Onapristone […] (40 mg/kg, im) on days 180, 197, 240, and 270
# [2] = Example II: serum hormone concentrations from subcutaneous capsules; assay type: in vivo, Macaca fascicularis
# Description: (§3) Twenty previously ovariectomized cynomolgus monkeys (Macaca fascicularis) have implanted for 281 days a single estradiol-containing subcutaneous capsule. Estradiol release from this capsule results in serum estradiol concentrations of approximately 75 pg/ml. A subcutaneous progesterone capsule is implanted on day 191 and remains in place until day 281. Progesterone release from this capsule results in serum progesterone concentrations of approximately 4 ng/ml. The study takes place in the animal research facilities of the Eastern Virginia Medical School as described in Example I.
# [3] = system: ovariectomized cynomolgus monkeys; assay: Example II: vaginal bleeding in ovariectomized monkeys on estradiol and estradiol plus progesterone replacement, intermittent onapristone; assay type: in vivo, Macaca fascicularis
# Description: as §3
# The purpose of this study was to evaluate break-through bleeding prior to and after onapristone treatment in ovariectomized monkeys receiving estrogen and estrogen plus progesterone replacement therapy. The twenty monkeys were assigned to the following four groups: Group I receives onapristone vehicle (saline) on days 30, 60, 90, 120, 150, 180, 210, 240, 270. Group 2 receives 3 mg/kg i.m. onapristone on days 30, 60, 90, 120, 150, 180, 210, 240, 270. Group 3 is treated with 10 mg/kg i.m. onapristone on the same days. Group 4 receives 30 mg/kg i.m. onapristone on the same days. Vaginal swabs are performed daily from day 1 to 281. The primary parameter for evaluation in this study is the occurrence of vaginal bleeding.
# [4] = system: adult female rhesus monkeys; assay: Example I Part II: daily vaginal swabs for bleeding, ultra low dose oral contraception with or without intermittent RU 486, 180 days; assay type: in vivo, Macaca mulatta
# Description: In Part II, 30 of these primates were randomly assigned to five treatment groups of six each: (1) the oral contraceptive medication employed in Part I was continued (21+7 day regimen) for 6 months; (2) continuous (no “pill-free” interval) daily estrogen-progestin medication, with combined single day oral administration of an antiprogestin (RU 486) on treatment days 30, 60, 90, 120, 150, and 180; (3) same as group 2, except that the progesterone antagonist was given only on days 60, 120, and 180; (4) same as group 2, except that RU 486 was given only on days 90 and 180; and (5) 180 days of continuous estrogen-progestin daily therapy, but without any antiprogestin treatment. Daily monitoring to detect vaginal blood, as in Part I above, was discontinued at 187 days. Femoral blood was collected once weekly throughout in order to identify potential breakthrough ovulation via progesterone elevations; serum values above 1.0 ng/ml were considered indicative of ovarian luteal function and possible ovulation. Likewise, these same specimens were analyzed for estradiol levels in order to monitor ongoing endogenous estrogen biosynthesis. […]
# Data derived from Part II of the study was listed by treatment group with the profiles of endometrial bleeding through six treatment cycles to 180 days. Mean (+SEM) number of days for breakthrough bleeding or menses was calculated by dividing the total number of incidents recorded (per treatment cycle in the case of group 1 or 30 days intervals for groups 2 to 5) by the number of individuals observed in the group. In the tabulation of data, menses (withdrawal or induced bleeding at expected intervals) was scored for vaginal blood detected within the “pill free” interval for group 1 or within seven days after the intermittent administration of RU 486 during continuous ultra low dose oral contraception (groups 2 to 4). Similarly, failure to observe vaginal bleeding during these times of expected menses, either withdrawal of the oral contraceptive medication or soon after giving the progesterone antagonist, was scored as withdrawal amenorrhea.
# [5] = system: ovulation (serum estradiol and progesterone); assay: Example I Part II: weekly serum progesterone and estradiol (breakthrough ovulation, endogenous estrogen biosynthesis); assay type: in vivo, Macaca mulatta; conditions: continuous ultra low dose regimen plus intermittent RU 486; almost unvarying
# Description: In Part II, 30 of these primates were randomly assigned to five treatment groups of six each: (1) the oral contraceptive medication employed in Part I was continued (21+7 day regimen) for 6 months; (2) continuous (no “pill-free” interval) daily estrogen-progestin medication, with combined single day oral administration of an antiprogestin (RU 486) on treatment days 30, 60, 90, 120, 150, and 180; (3) same as group 2, except that the progesterone antagonist was given only on days 60, 120, and 180; (4) same as group 2, except that RU 486 was given only on days 90 and 180; and (5) 180 days of continuous estrogen-progestin daily therapy, but without any antiprogestin treatment. Daily monitoring to detect vaginal blood, as in Part I above, was discontinued at 187 days. Femoral blood was collected once weekly throughout in order to identify potential breakthrough ovulation via progesterone elevations; serum values above 1.0 ng/ml were considered indicative of ovarian luteal function and possible ovulation. Likewise, these same specimens were analyzed for estradiol levels in order to monitor ongoing endogenous estrogen biosynthesis. Two monkeys, in groups 1 and 3, respectively, were dropped from the ongoing protocol, one due to a skin rash and the other because of a thumb infection requiring topical treatment. Neither incident is believed to be related to the hormonal treatments.
# [6] = design: species or system cynomolgus monkeys; conditions: female, cynomolgus monkey, in vivo, sc
# Description: as §1, §2
smiles,measurement,setting,value
CC(=O)[C@H]1CC[C@H]2[C@@H]3CCC4=CC(=O)CC[C@]4(C)[C@H]3CC[C@]12C [progesterone],BTBs after addition of low-dose progesterone,[1]; on estradiol implant,increase in BTBs
same,serum progesterone concentrations,"[2]; subcutaneous progesterone capsule, day 191 to 281",approximately 4 ng/ml
CN(C)c1ccc([C@H]2C[C@]3(C)[C@@H](CC[C@]3(O)CCCO)[C@@H]3CCC4=CC(=O)CCC4=C32)cc1 [Onapristone],incidence of breakthrough bleeding,[1],reduced the incidence of BTBs
same,incidence of breakthrough bleeding,[1]; listed as onapristone,reduced the incidence of breakthrough bleeding
same,days of bleeding that followed the day 197 onapristone treatment,"[1]; Group 2, 40 mg/kg",Twelve of the twenty days
same,monkeys in which bleeding followed the day 197 treatment,"[1]; Group 2, 40 mg/kg",four of the ten monkeys
same,monkeys in which bleeding occurred,"[1]; Group 2, 40 mg/kg",seven of the ten monkeys
same,days of unscheduled vaginal bleeding (breakthrough bleeding),"[1]; Group 2, 40 mg/kg im, controls 33 days",2 days
same,days of bleeding that followed the day 240 onapristone treatment,"[1]; Group 2, 40 mg/kg, in one monkey",Six of the twenty days
same,days of vaginal bleeding,"[1]; Group 2, 40 mg/kg, out of 800 days of observation",20 days
same,withdrawal-bleeding,[1]; monkeys substituted with E2 and low-dose progesterone,induced withdrawal-bleeding
same,incidence of breakthrough bleeding,"[3]; Groups 2-4: 3, 10, 30 mg/kg i.m. every 30 days, estradiol capsule",lowers the incidence of breakthrough bleeding
same,induction of bleeding by onapristone during estradiol treatment,"[3]; Groups 2-4: 3, 10, 30 mg/kg i.m. every 30 days, estradiol capsule only",does not induce bleeding
same,induction of vaginal bleeding during combined estradiol and progestin treatment,[3]; after progesterone capsule implanted (day 191),induces vaginal bleeding
CC#C[C@]1(O)CC[C@H]2[C@@H]3CCC4=CC(=O)CCC4=C3[C@@H](c3ccc(N(C)C)cc3)C[C@@]21C [RU 486],duration of menses after RU 486,"[4]; RU 486 50 mg intermittently during continuous ultra low dose oral contraception, P<0.05 versus interrupted pill cycle alone",3.1 ± 0.8 days
same,"time to induced bleeding after RU 486, all instances","[4]; administered at 30, 60 or 90 day intervals",≤ 72 h
same,reduction of overall breakthrough bleeding incidence,"[4]; single 50 mg oral RU 486 doses at 30, 60 or 90 day intervals during continuous ultra low dose oral contraception, groups 2 to 4 combined versus group 1, P<0.05",57%
same,serum estradiol levels,[5],~25 pg/mL
C[C@]12CC[C@@H]3c4ccc(O)cc4CC[C@H]3[C@@H]1CC[C@@H]2O [estradiol],serum estradiol concentrations,[6],approximately 75 pg/ml
same,breakthrough bleedings (BTBs) with E2 alone,[1]; ovariectomized monkeys substituted with E2 alone,do not exhibit breakthrough bleedings
same,serum estradiol concentrations,[2]; single estradiol-containing subcutaneous capsule,approximately 75 pg/ml
same,rate of breakthrough bleeding with progressing duration of estradiol treatment,"[3]; Group 1, estradiol capsule, onapristone vehicle",increasing rate of breakthrough bleeding
